The values that follow come from patent US7517884B2 (Kalypsys Inc., priority 1998, dated 2009).

Format in all cases: cell-based, murine and human
Holding throughout (conditions): GAL4-PPAR LBD chimera

In assay [1] the target is T1, PPAR-delta (UniProt Q03181).
T1 sequence (Q03181 1-441): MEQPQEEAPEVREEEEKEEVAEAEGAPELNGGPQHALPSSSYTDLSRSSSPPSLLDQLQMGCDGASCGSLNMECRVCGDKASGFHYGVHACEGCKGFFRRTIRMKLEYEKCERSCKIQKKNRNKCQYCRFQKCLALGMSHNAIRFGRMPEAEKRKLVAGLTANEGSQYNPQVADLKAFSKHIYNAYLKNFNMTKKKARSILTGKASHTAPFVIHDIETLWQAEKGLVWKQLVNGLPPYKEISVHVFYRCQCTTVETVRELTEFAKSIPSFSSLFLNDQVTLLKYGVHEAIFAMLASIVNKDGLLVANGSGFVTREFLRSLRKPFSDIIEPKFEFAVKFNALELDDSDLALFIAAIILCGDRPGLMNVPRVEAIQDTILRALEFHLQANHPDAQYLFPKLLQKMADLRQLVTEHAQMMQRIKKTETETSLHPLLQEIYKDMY
The assay can be described thus: PPAR-delta transactivation assay (GAL4 chimera, luciferase reporter) in CV-1 cells. An excerpt:
(§1) Compounds may be screened for functional potency in transient transfection assays in CV-1 cells for their ability to activate the PPAR subtypes (transactivation assay). A previously established chimeric receptor system was utilized to allow comparison of the relative transcriptional activity of the receptor subtypes on the same synthetic response element and to prevent endogenous receptor activation from complicating the interpretation of results. See, for example, Lehmann, J. M.; Moore, L. B.; Smith-Oliver, T. A; Wilkinson, W. O.; Willson, T. M.; Kliewer, S. A., An antidiabetic thiazolidinedione is a high affinity ligand for peroxisome proliferator-activated receptor […], J. Biol. Chem., 1995, 270, 12953-6. The ligand binding domains for murine and human PPAR-alpha, PPAR-gamma, and PPAR-delta are each fused to the yeast transcription factor GAL4 DNA binding domain. CV-1 cells were transiently transfected with expression vectors for the respective PPAR chimera along with a reporter construct containing four or five copies of the GAL4 DNA binding site driving expression of luciferase. After 8-16 h, the cells are replated into multi-well assay plates and the media is exchanged to phenol-red free DME medium supplemented with 5% delipidated calf serum. 4 hours after replating, cells were treated with either compounds or 1% DMSO for 20-24 hours. Luciferase activity was then assayed with Britelite (Perkin Elmer) following the manufacturer's protocol and measured with either the Perkin Elmer Viewlux or Molecular Devices Acquest (see, for example, Kliewer, S. A., et. al. Cell 1995, 83, 813-819). Rosiglitazone is used as a positive control in the PPARγ assay. Wy-14643 and GW7647 are used as positive controls in the PPARα assay. GW501516 is used as the positive control in the PPARδ assay.
(§2) Compounds of Examples 1-141 were assayed to measure their biological activity with respect to their EC50 values for modulating PPAR-alpha, PPAR-gamma, and PPAR-delta as set forth in Table 1.

The target of assay [2] is T2, PPAR-alpha (UniProt Q07869).
T2 sequence (Q07869 1-468): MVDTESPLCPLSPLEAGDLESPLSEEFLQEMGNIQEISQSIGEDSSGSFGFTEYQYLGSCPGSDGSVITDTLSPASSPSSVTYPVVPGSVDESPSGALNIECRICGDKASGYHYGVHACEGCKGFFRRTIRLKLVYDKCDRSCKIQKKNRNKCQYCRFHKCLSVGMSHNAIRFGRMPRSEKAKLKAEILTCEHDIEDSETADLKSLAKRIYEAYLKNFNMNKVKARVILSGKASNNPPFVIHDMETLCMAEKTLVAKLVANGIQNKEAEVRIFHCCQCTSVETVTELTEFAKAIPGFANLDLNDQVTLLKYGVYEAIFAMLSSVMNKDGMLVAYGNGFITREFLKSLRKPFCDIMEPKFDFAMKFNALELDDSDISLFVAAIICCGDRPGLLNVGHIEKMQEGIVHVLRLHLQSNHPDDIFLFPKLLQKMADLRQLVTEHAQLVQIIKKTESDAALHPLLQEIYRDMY
The assay can be described thus: PPAR-alpha transactivation assay (GAL4 chimera, luciferase reporter) in CV-1 cells.
Text: as §1, §2
Background: In a reporter assay the amount or activity of a reporter protein is the signal.

Assay [3] deals with T3, PPAR-gamma (UniProt P37231).
T3 sequence (P37231 1-505): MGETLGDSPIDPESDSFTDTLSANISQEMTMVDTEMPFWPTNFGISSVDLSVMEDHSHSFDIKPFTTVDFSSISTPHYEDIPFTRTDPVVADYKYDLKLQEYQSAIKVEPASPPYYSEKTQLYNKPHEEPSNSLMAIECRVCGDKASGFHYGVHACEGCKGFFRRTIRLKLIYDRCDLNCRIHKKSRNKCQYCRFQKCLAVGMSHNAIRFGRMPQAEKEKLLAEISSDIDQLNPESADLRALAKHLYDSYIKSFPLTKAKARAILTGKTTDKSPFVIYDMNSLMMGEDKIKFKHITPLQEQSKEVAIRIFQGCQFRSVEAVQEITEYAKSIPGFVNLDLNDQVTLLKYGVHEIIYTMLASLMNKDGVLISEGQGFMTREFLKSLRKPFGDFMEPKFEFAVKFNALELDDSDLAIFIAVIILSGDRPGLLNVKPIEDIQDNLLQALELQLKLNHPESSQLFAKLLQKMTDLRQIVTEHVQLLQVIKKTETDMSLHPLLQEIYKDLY
Nature of the assay: PPAR-gamma transactivation assay (GAL4 chimera, luciferase reporter) in CV-1 cells.
Text: as §1, §2

With `C[C@@H]1CN(c2cccc(OC(F)(F)F)c2)C[C@H](C)N1S(=O)(=O)c1cccc2c1CC(C(=O)O)C2` (single isomer, unassigned) [Example 130, 4-[cis-2,6-dimethyl-4-(3-trifluoromethoxyphenyl)piperazin-1-ylsulfonyl]-2,3-dihydro-1H-indene-2-carboxylic acid], the EC50 is 5 to 100 µM in assay [1], above 100 µM in assay [2] and above 100 µM in assay [3].
For `C[C@@H]1CN(c2ccc(C(F)(F)F)c(Cl)c2)C[C@H](C)N1S(=O)(=O)c1cccc2c1CC(C(=O)O)C2` (single isomer, unassigned) [Example 138, 4-(4-(3-chloro-4-(trifluoromethyl)phenyl)-cis-2,6-dimethylpiperazin-1-ylsulfonyl)-2,3-dihydro-1H-indene-2-carboxylic acid], the concentration giving a half-maximal response (EC50) in assay [1] is below 5 µM; in assay [2], above 100 µM; in assay [3], above 100 µM.
Turning to `C[C@@H]1CN(c2ccc(C(F)(F)F)c(Cl)c2)C[C@H](C)N1S(=O)(=O)c1cccc2c1CC(C(=O)O)C2` (single isomer, unassigned) [Example 139, 4-(4-(3-chloro-4-(trifluoromethyl)phenyl)-cis-2,6-dimethylpiperazin-1-ylsulfonyl)-2,3-dihydro-1H-indene-2-carboxylic acid], the EC50 in assay [1] is 5 to 100 µM; in assay [2] it was above 100 µM; in assay [3], above 100 µM.
As for `C[C@@H]1CN(Cc2ccc(OC(F)(F)F)cc2)C[C@H](C)N1S(=O)(=O)c1cccc2c1CC(C(=O)O)C2` (single isomer, unassigned) [Example 140], the EC50 in assay [1] is below 5 µM; in assay [2], above 100 µM; in assay [3], 5 to 100 µM.
Taken in the same sequence, the figures for `C[C@@H]1CN(Cc2ccc(OC(F)(F)F)cc2)C[C@H](C)N1S(=O)(=O)c1cccc2c1CC(C(=O)O)C2` (single isomer, unassigned) [Example 141] were 5 to 100 µM, above 100 µM and above 100 µM.
Taken in the same sequence, the figures for `C[C@@H]1[C@H](C)N(c2ccc(C(F)(F)F)cn2)CCN1S(=O)(=O)c1ccc2c(c1)C(C(=O)O)CC2` (stereo in doubt) [Example 86, 6-[2,3-Dimethyl-4-(5-trifluoromethyl-pyridin-2-yl)-piperazine-1-sulfonyl]-indan-1-carboxylic acid] were below 5 µM, below 5 µM and below 5 µM.
Take `C[C@@H]1[C@H](C)N(c2ccc(C(F)(F)F)cn2)CCN1S(=O)(=O)c1ccc2scc(CC(=O)O)c2c1` (stereo in doubt) [Example 87, {5-[2,3-Dimethyl-4-(5-trifluoromethyl-pyridin-2-yl)-piperazine-1-sulfonyl]-benzo[b]thiophen-3-yl}-acetic acid]: the EC50 in assay [1] is below 5 µM; in assay [2], 5 to 100 µM; in assay [3], below 5 µM.
Take `O=C(O)CC1Cc2ccc(S(=O)(=O)N3CCN(c4ccc(C(F)(F)F)cc4)CC3)cc2C1` (stereo not drawn) [Example 1, {5-[4-(4-trifluoromethylphenyl)-piperazine-1-sulfonyl]-indan-2-yl}-acetic acid]: the EC50 in assay [1], in assay [2] and in assay [3] was 5 to 100 µM throughout.
As to `O=C(O)CC1Cc2cccc(S(=O)(=O)N3CCN(c4ccc(C(F)(F)F)cc4)CC3)c2C1` (stereo not drawn) [Example 2, {4-[4-(4-trifluoromethyl-phenyl)-piperazine-1-sulfonyl]-indan-2-yl}-acetic acid], the EC50 in assay [1] was below 5 µM; in assay [2], above 100 µM; in assay [3], 5 to 100 µM.
`O=C(O)CC1Cc2ccc(S(=O)(=O)N3CCN(c4ccc(Cl)c(Cl)c4)CC3)cc2C1` (stereo not drawn) [Example 3, {5-[4-(3,4-dichlorophenyl)-piperazine-1-sulfonyl]-indan-2-yl}-acetic acid]: the EC50 in assay [1], in assay [2] and in assay [3] was 5 to 100 µM in each case.
For `O=C(O)CC1Cc2cccc(S(=O)(=O)N3CCN(c4ccc(Cl)c(Cl)c4)CC3)c2C1` (stereo not drawn) [Example 4, {4-[4-(3,4-dichlorophenyl)-piperazine-1-sulfonyl]-indan-2-yl}-acetic acid], the EC50 in assay [1] was 5 to 100 µM; in assay [2], above 100 µM; in assay [3], above 100 µM.
Turning to `O=C(O)C1Cc2ccc(S(=O)(=O)N3CCN(c4ccc(C(F)(F)F)cc4)CC3)cc2C1` (stereo not drawn) [Example 5, 5-[4-(4-trifluoromethyl-phenyl)-piperazine-1-sulfonyl]-indan-2-carboxylic acid], the half-maximal effective concentration (EC50) in assay [1] is below 5 µM; in assay [2], 5 to 100 µM; in assay [3] it was 5 to 100 µM.
For `O=C(O)C1Cc2cccc(S(=O)(=O)N3CCN(c4ccc(C(F)(F)F)cc4)CC3)c2C1` (stereo not drawn) [Example 6, 4-[4-(4-trifluoromethyl-phenyl)-piperazine-1-sulfonyl]-indan-2-carboxylic acid], the 50% effective concentration (EC50) in assay [1] is below 5 µM; in assay [2], above 100 µM; in assay [3], below 5 µM.
In the case of `O=C(O)C1Cc2ccc(S(=O)(=O)N3CCN(c4ccc(Cl)c(Cl)c4)CC3)cc2C1` (stereo not drawn) [Example 7, 5-[4-(3,4-dichlorophenyl)-piperazine-1-sulfonyl]-indan-2-carboxylic acid], the values for the EC50 in assay [1], in assay [2] and in assay [3] were below 5 µM, 5 to 100 µM and 5 to 100 µM, respectively.
Take `O=C(O)C1Cc2cccc(S(=O)(=O)N3CCN(c4ccc(Cl)c(Cl)c4)CC3)c2C1` (stereo not drawn) [Example 8, 4-[4-(3,4-dichlorophenyl)-piperazine-1-sulfonyl]-indan-2-carboxylic acid]: the EC50 in assay [1] is below 5 µM; in assay [2] it was 5 to 100 µM; in assay [3], below 5 µM.
With `O=C(O)C1Cc2ccc(S(=O)(=O)N3CCN(c4ccc(C(F)(F)F)cn4)CC3)cc2C1` (stereo not drawn) [Example 9], the EC50 is below 5 µM in assay [1], 5 to 100 µM in assay [2] and 5 to 100 µM in assay [3].
As for `CC1(C(=O)O)Cc2ccc(S(=O)(=O)N3CCN(c4ccc(C(F)(F)F)cn4)CC3)cc2C1` (stereo not drawn) [Example 13, 2-methyl-5-[4-(5-trifluoromethyl-pyridin-2-yl)-piperazine-1-sulfonyl]-indan-2-carboxylic acid], the half-maximal effective concentration (EC50) was below 5 µM in assay [1], 5 to 100 µM in assay [2] and 5 to 100 µM in assay [3].
Take `CC1(C(=O)O)Cc2cccc(S(=O)(=O)N3CCN(c4ccc(C(F)(F)F)cn4)CC3)c2C1` (stereo not drawn) [Example 14, 2-methyl-4-[4-(5-trifluoromethyl-pyridin-2-yl)-piperazine-1-sulfonyl]-indan-2-carboxylic acid]: the EC50 in assay [1] is 5 to 100 µM; in assay [2] it was above 100 µM; in assay [3], 5 to 100 µM.

As a reminder, the EC50 is the concentration giving half of the maximal effect. A lower EC50 goes with an effect from little substance.
